Earlier results on one compound are cited in patent US11324751B1 (Janssen Pharmaceutica NV, priority 2020, dated 2022).

Take `CCCCCCCCCCCCCCCC(=O)OC1CCCn2c1nc(C)c(CCN1CCC(c3noc4cc(F)ccc34)CC1)c2=O` (racemic) [paliperidone palmitate, (=)-3-[2-[4-(6-fluoro-1,2-benzisoxazol-3-yl)-1-piperidinyl]ethyl]-6,7,8,9-tetrahydro-2-methyl-4-oxo-4H-pyrido[1,2-c]pyrimidin-9-yl hexadecanoate]: the water solubility result is listed as “extreme low water solubility”.
